Series [1] relates to chymotrypsin. Kind of series: chymotrypsin in HEPES buffer solution (50 mM, pH = 7.4). The conditions noted are these: 37 °C, up to 8 h.
Series [2] concerns the target T1, chymotrypsin (Bos taurus, UniProt P00766). Kind of series: LC-MS analysis of enzymatic fragments and cleavage sites with chymotrypsin. The series is classed as in vitro ADME. Also on record: purchased. The note with it: LC-MS (ESI); HEPES 50 mM pH 7.4, 37 °C, peptide:protease 40:1. The method, then: To further investigate how glycosylation promotes the enzymatic digestion of D-amino acid-containing peptides, we analyzed the enzymatic cleavage sites of the glycosylated peptides using LC-MS (Figures S6–S14).
(β-D-GalNAc ) (H) in the presence of chymotrypsin. The peptides were dissolved in HEPES
Chymotrypsin was added to the above solution. In which the peptide: protease (ω: ω) = 40:1.
Incubation was performed at 37°C. Method of stopping enzymatic digestion after reaching
reaction time: Chymotrypsin is extinguished with 1% TFA. Each experiment was performed

For series [3], the target named is T1, chymotrypsin. The experiment in a line: Enzymatic degradation by chymotrypsin, substrate decay followed by HPLC. The conditions noted are these: 37 °C; for Substrate decay rate constant in the presence of chymotrypsin: peptide 0.5 mg/mL in HEPES 50 mM pH 7.4, chymotrypsin 0.5 mg/mL, peptide:protease 40:1 (w/w), stopped with 1% TFA, HPLC-UV 215 nm, fit y=A0×exp(−k1×x), each experiment three times, Figure 7; for Enzymatic degradation by chymotrypsin, compared with 5-t: peptide 0.5 mg/mL, HEPES 50 mM pH 7.4, chymotrypsin 0.5 mg/mL, 40:1 (w/w), up to 8 h, HPLC, three times, Figures 5C, 6.

A further series concerns papain. The experiment in a line: papain in HEPES buffer (50 mM, pH=7.4). The conditions noted are these: 37 °C, up to 8 h.
The subject of another series is pepsin. Kind of series: pepsin in HEPES buffer (50 mM, pH=7.4). The note with it: 37 °C, up to 8 h.
The target in another series is T2, Proteinase K (PROK) (Parengyodontium album, UniProt P06873).
T2 construct: purchased
Kind of series: Enzymatic degradation by Proteinase K (PROK), protease resistance. The series is classed as in vitro ADME. The conditions noted are these: peptide 0.5 mg/mL in HEPES 50 mM pH 7.4 (600 μL) + PROK 1.5 mg/mL (15.0 μL); 50 °C; 0-8 h; quenched with 1% TFA; HPLC 215 nm; three times; Figure 4. The procedure:
The peptides were dissolved in HEPES buffer (50 mM, pH = 7.4) to a final concentration of 0.5 mg/mL. Proteinase K (PROK) was prepared in deionized water at a final concentration of 1.5 mg/mL. The peptide solutions (600 μL) were then incubated with PROK solution (15.0 μL) at 50 °C. At 0, 0.5, 1.0, 2.0, 4.0, and 8.0 h intervals, 100 μL of the digestion mixture was taken and quenched with 100 μL of 1% TFA in water. The enzymatic hydrolysis of peptides was monitored by HPLC at 215 nm. Each experiment was performed three times.

The nature of series [4]: RP-HPLC retention time of peptides (hydrophobicity/polarity). In kind it is physicochemical. The note with it: chromatographic, C18 reversed phase, 0.1% TFA water/acetonitrile, gradient 10-50% solvent B over 30 min, 1 mL/min, UV; used as measure of hydrophobicity/polarity; Figure 3D. The procedure: Purification was performed on a ZORBAX Eclipse XDB-C18 reversed-phase column (5 μm, 9.4 × 250 mm, Agilent, Santa Clara, CA, USA) using solvent A (0.1% TFA in water) and solvent B (0.1% TFA in acetonitrile). Elution was performed at a flow rate of 1 mL/min with a gradient of 10–50% solvent B over 30 min, and detection was carried out using a UV detector at 220 nm. All purified peptide samples were freeze-dried to yield a white powder.

“Also recorded” adds a separate entry of the source.

T2 sequence (P06873 106-384): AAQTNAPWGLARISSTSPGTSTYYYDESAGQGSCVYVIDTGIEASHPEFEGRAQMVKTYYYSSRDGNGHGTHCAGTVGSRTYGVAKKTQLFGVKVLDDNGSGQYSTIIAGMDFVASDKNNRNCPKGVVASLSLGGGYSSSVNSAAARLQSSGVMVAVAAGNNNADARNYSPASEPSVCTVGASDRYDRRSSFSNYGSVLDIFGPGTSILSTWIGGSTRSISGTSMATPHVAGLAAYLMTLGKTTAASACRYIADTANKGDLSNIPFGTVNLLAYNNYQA

As for KTNE(t-β-D-Gal-NAc)WRSED, the cleaved bond entry in the series with chymotrypsin [1] is “Arg7-Ser8”.
For “KTNE(t-β-D-Gal-NAc)WRSED [5-t-(β-D-GalNAc)]”, on chymotrypsin [2], the “Cleavage sites in the presence of chymotrypsin” value (“Cleavage sites in the presence” below) was “Tyr2-Asn3, Arg7-Ser8” and the “Enzymatic fragments in the presence of chymotrypsin” value (“Enzymatic fragments in the presence” for short) was “KY, NE-(t-β-D-GalNAc)-WR, NE-(t-β-D-Gal-NAc)-WRSED, SED”. The “Substrate decay rate constant in the presence of chymotrypsin” value (shortened to “Substrate decay rate constant”) on chymotrypsin [3] is 0.106 h⁻¹.
For KYNE(t-α-D-Glc)WRSED, the cleaved bond result in the series on chymotrypsin [1] is given as “Arg7-Ser8; also recorded: Tyr2-Asn3”.
KYNE(t-α-D-Glc)WRSED [5-t-(α-D-Glc)]: on chymotrypsin [2], the “Cleavage sites in the presence” value is listed as “Tyr2-Asn3, Arg7-Ser8” and the “Enzymatic fragments in the presence” value is “KY, NE-(t-α-D-Glc)-WR, NE-(t-α-D-Glc)-WRSED, SED”.
For KYNE(t-β-D-Gal)WRSED, in the series on chymotrypsin [1], the cleaved bond result is “Tyr2-Asn3; also recorded: Arg7-Ser8”.
For KYNE(t-β-D-Gal)WRSED [5-t-(β-D-Gal)], on chymotrypsin [2], the “Cleavage sites in the presence” value is reported as “Tyr2-Asn3, Arg7-Ser8” and the “Enzymatic fragments in the presence” value is listed as “KY, NE-(t-β-D-Gal)-WR, NE-(t-β-D-Gal)-WRSED, SED”.
Consider KYNE(t-β-D-Glc)WR(S-β-D-Glc)ED, for which, in the series with chymotrypsin [1], the cleaved bond result is listed as “Tyr2-Asn3; also recorded: Arg7-Ser8”.
For the substance KYNE(t-β-D-Glc)WRSED, the not cleaved entry in the series with papain and in the series with pepsin was “no enzymatic degradation; substrate molar fraction 1.0 at 8 h” throughout. Besides, the cleaved bond result with chymotrypsin [1] is “Tyr2-Asn3; also recorded: Arg7-Ser8”.
In the case of KYNE(t-β-D-Glc)WRSED [5-t-(β-D-Glc)], on chymotrypsin [2], the “Cleavage sites in the presence” value is listed as “Tyr2-Asn3, Arg7-Ser8” and the “Enzymatic fragments in the presence” value is “KY, NE-(t-β-D-Glc)-WR, NE-(t-β-D-Glc)-WRSED, SED”. In addition, the “Enzymatic degradation by PROK, substrate decay curves compared” value on Proteinase K (PROK) was “nearly identical”.
As for “KYNE(t-β-D-Glc-Ac4)WRSED [5-t-(β-D-Glc-Ac4)]”, the “Retention time in RP-HPLC” value in series [4] is given as 21.481 min.
For the substance KYNE(t-β-D-Rib)WRSED, the cleaved bond entry in the series on chymotrypsin [1] is “Tyr2-Asn3; also recorded: Arg7-Ser8”.
Consider KYNE(t-β-D-Rib)WRSED [5-t-(β-D-Rib)], for which, on chymotrypsin [2], the “Cleavage sites in the presence” value is “Tyr2-Asn3, Arg7-Ser8” and the “Enzymatic fragments in the presence” value is reported as “KY, KYNE-(t-β-D-Rib)-WR, NE-(t-β-D-Rib)-WR, NE-(t-β-D-Rib)-WRSED, SED”. Further, on chymotrypsin [3], the “Substrate decay rate constant” value came out at 0.187 h⁻¹ and the “Enzymatic degradation by chymotrypsin, compared with 5-t” value is “digested more efficiently than 5-t”.
Take KYNE(t-β-L-Rib)WRSED: in the series on chymotrypsin [1], the cleaved bond entry is “Tyr2-Asn3; also recorded: Arg7-Ser8”.
Regarding KYNE(t-β-L-Rib)WRSED [5-t-(β-L-Rib)], on chymotrypsin [2], the “Cleavage sites in the presence” value was “Tyr2-Asn3, Arg7-Ser8” and the “Enzymatic fragments in the presence” value is on record as “KY, KYNE(t-β-L-Rib)-WR, NE-(t-β-L-Rib)-WR, NE-(t-β-L-Rib)-WRSED, SED”. For the same substance, the “Enzymatic degradation by PROK, substrate decay curves compared” value on Proteinase K (PROK) is “more pronounced inhibitory effect on peptide enzymatic degradation compared to D-ribose”. For the same substance, at chymotrypsin [3], the “Substrate decay rate constant” value turned out to be 0.144 h⁻¹ and the “Enzymatic degradation by chymotrypsin, compared with 5-t” value is listed as “digested more efficiently than 5-t”.
Regarding KYNEtWR(S-β-D-Glc)ED, the cleaved bond result in the series on chymotrypsin [1] is “Tyr2-Asn3; also recorded: Arg7-Ser8”.
Take KYNEtWR(S-β-D-Glc)ED [5-t-(S-β-D-Glc)]: on chymotrypsin [2], the “Cleavage sites in the presence” value is reported as “Tyr2-Asn3, Arg7-Ser8” and the “Enzymatic fragments in the presence” value is given as “KY, KYNE-t-WR, NE-t-WR, NE-t-WR-(S-β-D-Glc)-ED, (S-β-D-Glc)-ED”. Further, the “Enzymatic degradation by PROK, substrate decay curves compared” value at Proteinase K (PROK) is “higher than that of 5-t-(β-D-Glc)”.
Consider KYNEtWRSED, for which the not cleaved result with papain and in the series on pepsin was “no enzymatic degradation; substrate molar fraction 1.0 at 8 h” each time. For the same substance, the cleaved bond entry in the series with chymotrypsin [1] is reported as “Tyr2-Asn3; also recorded: Arg7-Ser8”.
On to KYNEtWRSED [5-t], for which, on chymotrypsin [2], the “Cleavage sites in the presence” value was “Tyr2-Asn3, Arg7-Ser8” and the “Enzymatic fragments in the presence” value is “KY, NE-t-WR, NE-t-WRSED, SED”. Further, the “Substrate decay rate constant” value at chymotrypsin [3] was determined as 0.103 h⁻¹.

The values are drawn from PMC11820358 (Molecules, 2025).
